This passage reports Ki results from BindingDB's records for doi:10.1021/jm00112a042 (Zambeletti Research Laboratories, 1991).

“And” between values parts separate entries of the source, which are not always exact repeats. Equal entries are not always repeated.

One experiment can be described thus: Affinity for opioid receptor delta sites.
The term Ki denotes the dissociation constant of the complex between target and ligand, obtained from inhibition or displacement. For `O=C(Cc1ccc(Cl)c(Cl)c1)N1CCc2sccc2C1CN1CCCC1` (stereo unspecified), the affinity corresponds to a Ki of 153 nM. In other words, the sub-micromolar range.

In the case of `O=C(Cc1ccc(Cl)c(Cl)c1)N1CCc2[nH]c3ccccc3c2C1CN1CCCC1` (stereo unspecified), the Ki is > 1000 nM.

For the molecule `O=C(Cc1ccc(Cl)c(Cl)c1)N1CCc2sccc2C1CN1CCCCC1` (stereo unspecified), the Ki was > 1000 nM.

On to `O=C(Cc1ccc(Cl)c(Cl)c1)N1CCc2ccsc2C1CN1CCCC1` (stereo unspecified), for which the inhibitory constant (Ki) is 362 nM.

As to `O=C(Cc1ccc(C(F)(F)F)cc1)N1CCc2sccc2C1CN1CCCCC1` (stereo unspecified), the inhibition constant Ki was > 1000 nM.

Turning to `O=C(Cc1ccc(Cl)c(Cl)c1)N1CCCC[C@H]1CN1CCCC1` [2-(3,4-Dichloro-phenyl)-1-(2-pyrrolidin-1-ylmethyl-piperidin-1-yl)-ethanone], the Ki came to 1000 nM.

A short description of the next experiment: Binding affinity was measured on opioid receptor delta sites.
Consider `O=C(Cc1ccc(C(F)(F)F)cc1)N1CCc2ccccc2C1CN1CCCCC1` (stereo unspecified), for which the Ki is > 1000 nM.

On to `O=C(Cc1ccc(Cl)c(Cl)c1)N1CCc2c([nH]c3ccccc23)C1CN1CCCC1` (stereo unspecified), for which the Ki is > 1000 nM.

As for `CN(C)CC1c2ccccc2CCN1C(=O)Cc1ccc(Cl)c(Cl)c1` (stereo unspecified), the Ki worked out at 746 nM.

Consider `O=C(Cc1ccc(C(F)(F)F)cc1)N1CCc2ccccc2[C@H]1CN1CCCC1`, for which the Ki is > 1000 nM and 149 nM.

Molecule `O=C(Cc1ccc(C(F)(F)F)cc1)N1CCCC[C@H]1CN1CCCC1` [1-(2-Pyrrolidin-1-ylmethyl-piperidin-1-yl)-2-(4-trifluoromethyl-phenyl)-ethanone] showed a Ki of 1000 nM.
